Assays:
[1] = system: Dunning R 3327, AT-1, rat prostatic tumour; test: Tumour growth after s.c. injection near tumour; assay type: in vivo; conditions: for tumour volumes: Animals II, single s.c. injection in the proximity of the tumour
Protocol: (§1) The animal experiment described above was repeated.
(§2) Group 1 received a single dose of 10 mg 17α-AED sc. near tumour.
(§3) Group 2 received a single dose of 80 mg 17β-AED in the same way.
(§4) Group 3 received a single dose of 25 mg 17α OH-pregnenolone in the same way.
(§5) Group 4 received a single dose of 7.5 mg 5-androstene-3β,7β,17α-triol.
A fifth group served as tumour bearing controls.

3T3-L1 fibroblasts = conditions: 200 nM
Protocol: 3T3L1 fibroblasts from ATCC (embryonic muscle cell-line) batch F-12732 (batch-date 930301) were grown in 500 ml of DMEM, 50 ml of fetal bovine serum (FBS) and 11 ml of PEST. Medium was changed every second day. Cells were passaged when they were 80% confluent.
For differentiating purpose fibroblasts were Incubated in DMEM+10% FCS+5 kg/ml of insulin. 0.1 mM of IBMX and 0.25 μM of dexametason was added. After 2 days cells were transferred to DMEM+10% FCS+5 μg/ml Insulin. Medium was then changed every second day and consisted of DMEM+10% FCS. […] This served as positive control for differentiation.
Fibroblasts were also incubated with the same solutions except that IBMX and dexamethasone were exchanged with solutions of 17α-AED in ethanol and water, making the concentration of 17α-AED 100 or 200 nM in the cultures. Cultures were kept in incubator until confluent.

cyclin D1 = test: Western blotting of Dunning AT-1 rat prostate tumours; assay type: in vivo; conditions: Animals II; exposure 80 hours in all arms
Protocol: as §1, §2, §3, §4, §5
Protein content of homogenates were determined by Lowry assay.

DU-145 = test: Trypan blue exclusion trial, number of viable and dead cells; assay type: cell-based, human; conditions: 96 hours; for DU-145 mean % viable / DU-145 mean Dead cells / DU-145 mean Tot. cells / DU-145 mean Viable cells: 100 nM; for DU-145 mean Dead cells / DU-145 mean Tot. cells / DU-145 mean Viable cells: mean (range)
Protocol: (§6) Human prostatic cancer cell lines, PC-3 and DU-145, were used. Frozen cell lines were established in culture. DU-145, which was received as a tumour piece, was first disintegrated in a sterile Petri dish, using a pair of scissors. The disintegrated tumour was transferred to a […] cell-culture flask containing medium. For medium, Ham's F 10 was used for PC-3 and RPMI 1640 for DU-145.
(§7) FBS 10%, 0.2% NaHCO3 (7.5%), 2 mM L-glutamine (200 mM) and 0.005 mg/ml gentamycin (5 mg/ml) were added to culturing media for both cell lines.
(§8) Cells were grown in […] cell culture flasks until nearly confluent and culture medium was changed twice weekly. A solution of 17α-AED, 17-β-AED as well as a mixture of both in equal parts of DMSO and ethanol diluted in culture medium, not allowing the concentration of DMSO in culture-flasks to exceed 0.15%, was added respectively.
(§9) The concentration of AED in each culture flask was 100 nM. Controls were exposed to the same concentration of DMSO and ethanol in culture medium.
(§10) Exposure was maintained for 96 hours and cells in culture flasks were then treated with 5 ml of trypsin (0.25%) for PC-3 and trypsin and 3 ml of Versene (0.2 mM) for DU-145. Cells were then mechanically loosened, using a glass spatula. 100 μL aliquots were removed for Trypan blue exclusion trial. 200 μL aliquots were removed for cytospin preparations. The remaining 700 μL samples were then centrifuged for 5 minutes at 510×g at 4° C. Supernatant was removed and cells were resuspended in medium in 1 ml of insect cell lysis buffer (Pharmingen # 21425A) and incubated for 30 minutes on ice. The cell lysates were then stored at −70° C. until analysis.
(§11) Trypan Blue Exclusion Trial 100 μL aliquots of the initial cell suspension in PBS were used to determine the viability of cells collected by means of the trypan blue exclusion assay. 10 μL of the cell suspensions were mixed with 10 μL trypan blue solution (Sigma Chemical Co. # T8154) and left to sit for 3 minutes. The numbers of viable and dead cells were counted in a hemocytometer.

PC-3 [2] = test: as above; assay type: cell-based, human; conditions: 96 hours; for PC-3 mean % viable / PC-3 mean Dead cells / PC-3 mean Tot. cells / PC-3 mean Viable cells: 100 nM; for PC-3 mean Dead cells / PC-3 mean Tot. cells / PC-3 mean Viable cells: mean (range); for increase in total number of cells compared to controls / proportion of viable cells: PC-3, 100 nM
Protocol: as §6, §7, §8, §9, §10, §11

[3] = system: Dunning AT-1, rat prostatic tumour; test: Tumour morphology; conditions: Animals I
Protocol: Group 4 served as untreated, tumour-bearing controls. In all treatments equal amounts of PEG 400 (Sigma Chemicals) and ethanol, 0.5 ml was used as vehicle and injected s.c. adjacent to the tumour site.
In group 2 the experiment was terminated after 96 hours and for the remaining groups after 19 days through asphyxiation of rats with carbon dioxide.

[4] = system: Dunning AT-1 rat prostatic tumour; conditions: sections of treated rat prostatic tumour
Source text: Tumours were investigated for Increased apoptosis with the Apop-Tag In situ apoptosis detection kit (Oncor, Gaithersburg, Md.).

PC-3 [5] = test: Caspase-3 apoptosis assay (Ac-DEVD-AMC fluorescence); assay type: cell-based, human; conditions: 96 hours; for Mean fluorescence PC-3 samples/100 cells n = 3: corrected for cell number; for Caspase 3-mediated fluorescence compared to untreated controls: PC-3, 100 nM, not corrected for cell numbers
Protocol: as §10
Aliquots of a 100 μL of cell lysate were removed for the caspase assay. Each portion was mixed with 1 ml protease assay buffer and Ac-DEVD-AMC substrate (Pharmingen # 66081U) with a final concentration of 20 μM. Solutions were incubated for 60 minutes at 37° C.
To determine background fluorescence a control was prepared, containing no cell lysate but the same amounts of protease assay buffer, lysis buffer and Ac-DEVD-AMC substrate.
Fluorescence was measured using a spectrofluorometer (RF 540, Shimadzu Data Recorder DR3, Instrument AB, Lambda) at 415-450 nm with an excitation wavelength of 380 nm.

[6] = system: Dunning AT-1 rat prostate cancer
VEGF = test: Immunostaining of tumour sections against VEGF; assay type: in vivo, rat
Protocol: Working dilution 1:100. As negative control antibody a mouse IgG, clone DAK-GO1, kappa, ×931, Dako, was used with a working dilution of 1:50.
as §1, §2, §3, §4, §5

PPARγ = conditions: Animals I; controls set to 100; mean (range); α-AED 10 mg 96 hours, β-AED 80 mg 456 hours, α+β sequential
Protocol: Thawed rat tumours from both experiments above were homogenized in ice cold lysis-buffer. (160 mM NaCl, 10 mM HEPES, 2 mM CaCl2, 5% SDS, 0.5% Triton X-100, 100 μg/ml phenyl-metylsulfonyl fluoride, 1 μg/ml leupeptin and 2 μg/ml aprotinin), placed on ice for 15 minutes and following clarification centrifuged for 10 minutes at 13,000 g. Protein content of homogenates were determined by Lowry assay.
Protein in lysates (90 μg) were separated by electrophoresis using 8% SDS-PAGE and separated proteins were transferred onto a nitrocellulose membrane (Amersham) in trans-blot electrophoretic transfer cell (Bio-Rad Laboratories).
After washing in TTBS the blots were reincubated with horseradish peroxidase conjugated secondary antibody (anti-goat antibodies 2020, Santa Cruz) diluted 1:4000 in TTBS containing 3% (w/v) non-fat, dried milk for one hour. Blots were developed using an enhanced chemiluminescence system (ECL, Amersham) and exposed to Hyperfilm ECL (Amersham). Optical density was measured densitometrically.
All experiments were repeated twice in separate assays.

Question: What does the source list for `C[C@]12CC[C@H]3[C@@H](CC=C4C[C@@H](O)CC[C@@]43C)[C@@H]1CC[C@H]2O` [Compound 17α-AED, androstene-3β,17α-diol]?
Answer: tumour volumes [1]: ~150%; cell proliferation (3T3-L1 fibroblasts): marked inhibition of cell proliferation; expression of cyclin D1 (cyclin D1): marked decrease; DU-145 mean % viable (DU-145): 78.1%; DU-145 mean Dead cells (DU-145): 29(21-37); DU-145 mean Tot. cells (DU-145): 131(122-148); DU-145 mean Viable cells (DU-145): 102(95-111); total number of cells (DU-145; DU-145, 100 nM): significant decrease in total number of cells; PC-3 mean % viable (PC-3 [2]): 71.6%; PC-3 mean Dead cells (PC-3 [2]): 23(16-32); PC-3 mean Tot. cells (PC-3 [2]): 81(64-98); PC-3 mean Viable cells (PC-3 [2]): 58(49-77); increase in total number of cells compared to controls (PC-3 [2]): 59%; proportion of viable cells (PC-3 [2]): small decrease in proportion of viable cells; tumour appearance (morphology) [3]: devitalized tumour tissue in circumscribed areas; programmed cell death compared to control (TUNEL) [4]: no sign of increased programmed cell death; Mean fluorescence PC-3 samples/100 cells n = 3 (PC-3 [5]; 100 nM, mean (range)): 19.5(15.7-25.9); Caspase 3-mediated fluorescence compared to untreated controls (PC-3 [5]): essentially unaltered intensity; mean S-phase ([6]; treated Dunning AT-1 samples, untreated 25.5%): 45.3%; Proportion of cells in G1 ([6]; treated tumours, control tumours 59%): 35%; expression of VEGF (immunostaining) (VEGF; Animals I, 3/4 samples): very weak; PPARγ expression, optical density (PPARγ): 190(176-210)

Question: What does the source list for `C[C@]12CC[C@H]3[C@@H](CC=C4C[C@@H](O)CC[C@@]43C)[C@@H]1CC[C@@H]2O` [Compound 17β-AED, reference compound]?
Answer: tumour volumes [1]: ~200%; antitumoural effect / tumour growth ([1]; original experiment (Animals I)): growth-stimulatory effect; expression of cyclin D1 (cyclin D1): did not reduce; DU-145 mean % viable (DU-145): 72.1%; DU-145 mean Dead cells (DU-145): 35(31-42); DU-145 mean Tot. cells (DU-145): 125(109-149); DU-145 mean Viable cells (DU-145): 90(78-107); PC-3 mean % viable (PC-3 [2]): 73.7%; PC-3 mean Dead cells (PC-3 [2]): 17(16-18); PC-3 mean Tot. cells (PC-3 [2]): 66(63-71); PC-3 mean Viable cells (PC-3 [2]): 49(46-53); increase in total number of cells compared to controls (PC-3 [2]): 29%; proportion of viable cells (PC-3 [2]): small decrease in proportion of viable cells; Mean fluorescence PC-3 samples/100 cells n = 3 (PC-3 [5]; 100 nM, mean (range)): 45.5(24.5-75.2); Mean fluorescence PC-3 samples n = 3 (PC-3 [5]; 100 nM, mean (range)): 29.6(17.4-48.1); Caspase 3-mediated fluorescence compared to untreated controls (PC-3 [5]): approximately a doubling of fluorescence; staining for VEGF (VEGF; Animals II): strong staining for VEGF; PPARγ expression, optical density (PPARγ): 47(40-53)

From patent publication US20050192262A1, “Treatment of tumours” (priority 2001, published 2005)
